We go through six compounds from publication PMC6272861, “In Vitro Inhibition of Human UDP-Glucuronosyl-Transferase (UGT) Isoforms by Astaxanthin, β-Cryptoxanthin, Canthaxanthin, Lutein, and Zeaxanthin: Prediction of in Vivo Dietary Supplement-Drug Interactions” (Molecules, 2016).

One data set concerns the target T1, UGT1A4 (Homo sapiens, UniProt P22310).
T1 construct: pooled human liver microsomes (final concentration 0.25 mg/mL); tissue Corning Life Sciences; host or cells: pooled human liver microsomes, 150 donors
T1 sequence (P22310 29-534): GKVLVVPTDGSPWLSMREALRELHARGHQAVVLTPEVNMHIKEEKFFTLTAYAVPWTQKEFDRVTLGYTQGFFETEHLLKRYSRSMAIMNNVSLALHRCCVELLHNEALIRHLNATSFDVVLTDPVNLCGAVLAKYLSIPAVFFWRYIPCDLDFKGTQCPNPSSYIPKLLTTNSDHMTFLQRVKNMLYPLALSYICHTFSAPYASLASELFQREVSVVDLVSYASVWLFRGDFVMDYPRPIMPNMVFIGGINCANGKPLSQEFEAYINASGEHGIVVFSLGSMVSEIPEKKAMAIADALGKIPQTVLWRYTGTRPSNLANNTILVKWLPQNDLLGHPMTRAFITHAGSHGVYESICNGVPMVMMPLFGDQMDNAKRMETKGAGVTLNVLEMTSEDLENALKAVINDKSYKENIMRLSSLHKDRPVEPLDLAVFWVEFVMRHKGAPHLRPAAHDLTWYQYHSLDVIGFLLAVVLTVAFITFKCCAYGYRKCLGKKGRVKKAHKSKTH
As to the kind of experiment: Inhibition of UGT1A4 (trifluoperazine-N-glucuronidation) in human liver microsomes. Format: in vitro ADME. Particulars: 4 μM trifluoperazine, mean ± SD of triplicate, read-out: IC50 towards UGT1A4. (Liver microsomes are vesicles of endoplasmic reticulum, rich in cytochrome P450 enzymes.)

For the next data set, the target named is T2, UGT1A1 (Homo sapiens, UniProt P22309).
T2 sequence (P22309 26-533): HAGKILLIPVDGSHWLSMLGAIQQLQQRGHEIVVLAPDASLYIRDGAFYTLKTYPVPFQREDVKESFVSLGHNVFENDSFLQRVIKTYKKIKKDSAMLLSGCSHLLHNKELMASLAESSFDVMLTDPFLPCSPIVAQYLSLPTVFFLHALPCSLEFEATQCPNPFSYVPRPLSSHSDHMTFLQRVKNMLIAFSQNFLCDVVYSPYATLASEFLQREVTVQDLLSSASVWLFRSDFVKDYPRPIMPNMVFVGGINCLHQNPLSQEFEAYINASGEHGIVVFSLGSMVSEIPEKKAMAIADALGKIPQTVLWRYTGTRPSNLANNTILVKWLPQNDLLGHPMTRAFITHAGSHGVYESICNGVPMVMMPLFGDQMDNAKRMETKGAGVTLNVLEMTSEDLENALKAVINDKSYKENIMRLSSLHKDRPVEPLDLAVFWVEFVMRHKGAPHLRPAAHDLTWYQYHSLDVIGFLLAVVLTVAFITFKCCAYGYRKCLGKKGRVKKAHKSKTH
As to the kind of experiment: Ki determination on UGT1A1 activity (β-estradiol-3-glucuronidation) in human liver microsomes. Particulars: Dixon plots / nonlinear regression. The protocol: Based on the lowest IC50 value, the inhibitor constant (Ki) values of the βC for UGT1A1 were determined. […] All incubations were performed in triplicate, and the mean values were used for the analysis. Other procedures were similar to those of the reversible inhibition studies.
(§1) For visual inspection, data were presented as Dixon plots.

For another data set, the target named is T3, UGT1A3 (Homo sapiens, UniProt P35503).
T3 sequence (P35503 29-534): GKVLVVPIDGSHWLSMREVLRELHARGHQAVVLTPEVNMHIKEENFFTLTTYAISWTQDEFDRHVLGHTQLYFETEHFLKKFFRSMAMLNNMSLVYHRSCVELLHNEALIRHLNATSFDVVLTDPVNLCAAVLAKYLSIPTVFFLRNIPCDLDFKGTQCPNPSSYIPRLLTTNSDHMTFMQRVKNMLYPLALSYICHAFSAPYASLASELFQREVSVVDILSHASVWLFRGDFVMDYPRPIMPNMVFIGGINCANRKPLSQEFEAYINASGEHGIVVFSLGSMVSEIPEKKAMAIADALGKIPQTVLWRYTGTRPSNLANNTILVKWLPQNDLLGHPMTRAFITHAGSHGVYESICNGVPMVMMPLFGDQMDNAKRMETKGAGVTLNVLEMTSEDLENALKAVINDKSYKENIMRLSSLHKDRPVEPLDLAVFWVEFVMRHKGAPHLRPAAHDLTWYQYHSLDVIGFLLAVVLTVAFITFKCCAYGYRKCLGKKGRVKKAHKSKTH

Another data set has as its target T4, UGT2B15 (Homo sapiens, UniProt P54855).
T4 construct: purchased Corning Life Sciences
T4 sequence (P54855 24-530): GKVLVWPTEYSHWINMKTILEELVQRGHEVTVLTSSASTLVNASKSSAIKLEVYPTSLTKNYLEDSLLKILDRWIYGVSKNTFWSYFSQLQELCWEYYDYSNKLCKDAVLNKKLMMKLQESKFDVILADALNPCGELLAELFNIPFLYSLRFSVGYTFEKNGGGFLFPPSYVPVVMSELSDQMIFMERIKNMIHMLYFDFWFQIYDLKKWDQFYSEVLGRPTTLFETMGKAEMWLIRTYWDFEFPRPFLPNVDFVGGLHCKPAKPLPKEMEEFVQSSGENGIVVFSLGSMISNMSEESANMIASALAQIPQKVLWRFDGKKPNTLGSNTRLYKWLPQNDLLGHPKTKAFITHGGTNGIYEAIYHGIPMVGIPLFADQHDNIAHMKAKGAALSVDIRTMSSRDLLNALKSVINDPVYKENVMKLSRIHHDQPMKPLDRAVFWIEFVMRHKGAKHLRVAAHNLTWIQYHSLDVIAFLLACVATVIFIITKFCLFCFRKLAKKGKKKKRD
Put plainly: Inhibition of UGT2B15 (4-methylumbelliferyl glucuronidation) in recombinant human UGT2B15 supersomes. The format is in vitro ADME. Particulars: recombinant UGT2B15 supersomes, 250 μM 4-methylumbelliferone, mean ± SD of triplicate; read-out: IC50 towards UGT2B15. Here is the method:
Although S-oxazepam is a typical substrate of UGT2B15 of human liver microsomes, authentic S-oxazepam and the corresponding glucuronide are not commercially […]. Thus, the inhibition of AS, βC, CA, LU, and ZE on the UGT2B15 activity was assessed using 4-methylumbelliferone as the nonspecific probe substrate for all UGTs except UGT1A4 [34] in recombinant human UGT2B15 supersomes.
The reaction was initiated by addition of 10 µL 5 mM UDPGA (to 100 µL total volume) followed by incubation for 120 min at 37 °C in a shaking water bath. Reactions were stopped by addition of 50 µL of ice-cold acetonitrile containing chlorpropamide (300 ng/mL) as an internal standard, and they were chilled and centrifuged (13,000 g, 15 min, 4 °C). An aliquot of 5 μL of supernatant was injected into an LC-MS/MS system. Additionally, identical parallel incubation samples containing a known UGT2B15 inhibitor amitriptyine (0–200 μM) was included as a positive control for UGT2B15.
as §1

The target in a further data set is T5, UGT1A9 (Homo sapiens, UniProt O60656).
T5 sequence (O60656 26-530): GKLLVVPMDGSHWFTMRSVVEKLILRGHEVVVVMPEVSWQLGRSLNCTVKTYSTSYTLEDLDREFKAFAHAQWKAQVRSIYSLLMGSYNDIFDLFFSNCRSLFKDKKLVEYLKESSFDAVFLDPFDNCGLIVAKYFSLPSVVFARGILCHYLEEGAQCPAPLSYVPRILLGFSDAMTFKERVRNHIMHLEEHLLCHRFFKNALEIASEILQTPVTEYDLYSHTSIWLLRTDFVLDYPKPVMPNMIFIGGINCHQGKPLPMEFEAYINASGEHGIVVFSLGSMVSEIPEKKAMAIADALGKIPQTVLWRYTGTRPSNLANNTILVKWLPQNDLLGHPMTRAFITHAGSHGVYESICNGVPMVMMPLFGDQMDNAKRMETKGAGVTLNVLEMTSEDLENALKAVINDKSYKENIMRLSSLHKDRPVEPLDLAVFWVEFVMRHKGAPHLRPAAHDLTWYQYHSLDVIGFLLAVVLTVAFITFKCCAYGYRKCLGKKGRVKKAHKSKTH
Put plainly: Inhibition of UGT1A9 (propofol-O-glucuronidation) in human liver microsomes.

In another data set the target is T6, UGT2B7 (Homo sapiens, UniProt P16662).
T6 sequence (P16662 24-529): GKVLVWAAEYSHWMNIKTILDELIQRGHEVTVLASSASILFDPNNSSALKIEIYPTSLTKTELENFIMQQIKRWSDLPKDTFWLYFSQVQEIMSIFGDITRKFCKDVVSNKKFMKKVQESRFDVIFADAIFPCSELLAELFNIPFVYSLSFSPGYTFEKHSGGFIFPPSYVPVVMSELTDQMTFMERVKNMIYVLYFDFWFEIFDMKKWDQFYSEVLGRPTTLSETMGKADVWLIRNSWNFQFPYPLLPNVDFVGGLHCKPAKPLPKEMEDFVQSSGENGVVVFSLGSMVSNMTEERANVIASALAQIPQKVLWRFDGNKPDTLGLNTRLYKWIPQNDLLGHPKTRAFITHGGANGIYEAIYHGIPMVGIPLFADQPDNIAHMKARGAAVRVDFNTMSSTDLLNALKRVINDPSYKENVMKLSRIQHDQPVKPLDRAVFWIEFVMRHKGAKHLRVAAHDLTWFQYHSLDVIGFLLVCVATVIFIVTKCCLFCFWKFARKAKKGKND
As to the kind of experiment: Inhibition of UGT2B7 (zidovudine-5′-glucuronidation) in human liver microsomes.

Method for UGT1A3: (§2) The formation activities of β-estradiol-3-glucuronide, chenodeoxycholic acid 24-acyl-β-D-glucuronide, trifluoperazine-N-glucuronide, imipramine-N-β-D-glucuronide, serotonin-O-glucuronide, propofol-O-glucuronide, and zidovudine-5′-glucuronide were determined to probe the activities of UGT1A1, UGT1A3, UGT1A4, UGT1A6, UGT1A9 and UGT2B7, respectively, in human liver microsomes.
(§3) In brief, the 90-µL incubation mixture, including pooled human liver microsomes (final concentration 0.25 mg/mL), 100 mM Tris buffer, 25 µg/mL alamethicin, 5 mM MgCl2, the UGT-selective substrates, and five xanthophylls (0–50 μM), were pre-incubated for 30 min on ice to allow formation of alamethicin pores. Reac2345tions were initiated by the addition of 10 μL of UDPGA (5 mM) to a final reaction volume of 0.1 mL and incubated at 37 °C for 60 min (except 30 min for UGT1A9) in a shaking water bath. After incubation, each reaction was stopped by adding 50 μL of ice-cold acetonitrile containing chlorpropamide (300 ng/mL) or theophylline (30 μg/mL or 300 μg/mL) as an internal standard. The mixtures were then centrifuged (13,000 g for 15 min at 4 °C) and 5-µL aliquots of the supernatants were injected into an LC-MS/MS system. […] All incubations were performed in triplicate, and mean values were used for analysis.
(§4) Chromatographic separations were performed on an Agilent Poroshell 120 EC-C18 column (50 mm × 4.6-mm i.d.; 2.7-μm particle size; Agilent Technologies) to quantify β-estradiol-3-glucuronide (UGT1A1), chenodeoxycholic acid 24-acyl-β-D-glucuronide (UGT1A3), trifluoperazine-N-glucuronide (UGT1A4), propofol-O-glucuronide (UGT1A9), zidovudine-5′-glucuronide (UGT2B7), and 4-methylumbelliferyl glucuronide (UGT2B15); an Agilent Poroshell 120 EC-C18 column (100 × 4.6-mm i.d.; 2.7-mm particle size) was used for quantification of serotonin-O-glucuronide (UGT1A6). The isocratic mobile phase consisted of distilled water (A) and acetonitrile containing 0.1% formic acid (B) at a ratio (v/v) of 10:90 for chenodeoxycholic acid 24-acyl-β-D-glucuronide, 30:70 for trifluoperazine-N-glucuronide and zidovudine-5′-glucuronide, 50:50 for propofol-O-glucuronide and 4-methylumbelliferyl glucuronide, 65:35 for β-estradiol-3-glucuronide, and 90:10 for serotonin-O-glucuronide, at a flow rate of 0.5 mL/min. The total run time was 4.0 min per sample for each metabolite, with the exception of serotonin-O-glucuronide (6.0 min). Peak areas for all of the analytes were automatically integrated using Analyst software (version 1.5.2, Applied Biosystems, Foster City, CA, USA).
(§5) The IC50 values were calculated via nonlinear least-squares regression analysis from plots of the logarithms of inhibitor concentration vs. the residual percentages of activities after inhibition, using WinNonlin (ver. 4.0; Pharsight, Mountain View, CA, USA).
Method for UGT1A4: as §2, §3, §4, §5
Method for UGT1A9: as §2, §3, §4, §5
Method for UGT2B7: as §2, §3, §4, §5

For `C[C@@H]1CC[C@@]2(OC1)O[C@H]1C[C@H]3[C@@H]4CC[C@H]5C[C@@H](O)CC[C@]5(C)[C@H]4CC(=O)[C@]3(C)[C@H]1[C@@H]2C` [Hecogenin, hecogenin, reference compound], the half-maximal inhibitory concentration (IC50) at UGT1A4 was 8.07 ± 2.6 µM.
Take `Cc1cn(-c2cc(NC(=O)c3ccc(C)c(Nc4nccc(-c5cccnc5)n4)c3)cc(C(F)(F)F)c2)cn1` [Nilotinib, nilotinib, reference compound]: the “Mode of inhibition of UGT1A1” value at UGT1A1 is “competitive inhibition”.
On to `COc1cc2c(c(OC)c1OC)-c1c(cc(OC)c(OC)c1OC)C[C@H](C)[C@H](C)C2` [Deoxyschizandrin, deoxyschizandrin], for which the IC50 against UGT1A3 was found to be 5.17 ± 0.7 µM.
Regarding `CN(C)CCC=C1c2ccccc2CCc2ccccc21` [Amitriptyline, amitriptyline, reference compound], on UGT2B15, the IC50 came to 69.4 ± 10.6 µM.
Take `O=C(O)c1cccnc1Nc1cccc(C(F)(F)F)c1` [Niflumic acid, niflumic acid, reference compound]: the midpoint of inhibition at UGT1A9, the IC50, lay at 0.39 ± 0.0256 µM.
On to `O=C1Nc2ccc(Cl)cc2[C@@](C#CC2CC2)(C(F)(F)F)O1` [Efavirenz, efavirenz, reference compound], for which 37.8 ± 2.37 µM corresponded to half-maximal inhibition on UGT2B7 (IC50).

In general, IC50 refers to the concentration needed to halve the response being measured.
